Values quoted from earlier work in US20250090612A1, “FEED ADDITIVE COMPOSITIONS AND METHODS OF USE” (PMI Nutrition, LLC, priority 2021, published 2025).

Tested on: C. elegans
Settings: C. elegans assay

For urolithins, the “concentration needed to obtain a positive effect on muscle function” value is given as 50 µM and the “concentration required to trigger the muscle function response” value is given as 11.4 µg/mL.
